Results from patent US20200339548A1, “PYRIMIDINE DERIVATIVES AND THEIR USE FOR THE TREATMENT OF CANCER” (Adorx Therapeutics Limited, priority 2017, published 2020).

Tests used:
Adenosine A2a receptor = target: T1, Adenosine A2a receptor (Homo sapiens, UniProt P29274); assay: Adenosine receptor TR-FRET binding assay, A2a; details: displacement of 100 nM CA200645, CHO cell membranes
T1 construct: expressed in transfected cells; host or cells: CHO cell membranes
Procedure: (§1) All FRET binding experiments were conducted at room temperature in white 384-well plates, in assay binding buffer containing 1× LabMed (Cisbio, France), 100 μg/mL saponin, 1% DMSO and 0.02% pluronic acid. Binding of the fluorescently labelled Adenosine receptor antagonist XAC (CA200645, FRET acceptor) to terbium-labelled A1, A2a, A2b and A3 adenosine receptors (FRET donors) was detected by time-resolved FRET due to the close proximity of the donor and acceptor in a binding event. To investigate the ability of unlabelled test compounds to bind to Adenosine A1, A2a, A2b and A3 receptors, dose response curves were constructed that determined the ability of a range of concentrations to inhibit the binding of 30 nM CA200645 to the A2b receptor and 100 nM CA200645 to the A1, A2a, and A3 receptor.
(§2) Serial dilution (1:3 dilutions) of test compounds in neat DMSO and transfer of a 400 nL sample of test compound into the assay plate was carried out using the Mosquito (TTP Labtech, UK). The compound samples were incubated for 2 hours at room temperature with a fixed concentration of CA200645 defined for each receptor (see above) and CHO cell membranes containing the human Adenosine A1 (0.5 μg/well), A2a (0.3 μg/well), A2b (1 μg/well) or A3 (1 μg/well) receptor in 40 μL of assay buffer. Total and non-specific binding of CA200645 was determined in the absence and presence of 10 μM XAC, respectively.
(§3) Following 2 hours incubation, the level of CA200645 binding was detected on a Pherastar FSX (BMG Labtech, Germany) using standard TR-FRET settings. The terbium donor was excited with three laser flashes at a wavelength of 337 nm, and donor and acceptor emission was detected at 620 nm and 665 nm wavelengths, respectively. FRET ratios were obtained by multiplying the acceptor/donor ratio value by 10,000. Specific binding was determined by subtracting the non-specific binding FRET ratio from the total binding FRET ratio. Compound IC50 curves were analysed using GraphPad Prism 7.0 (GraphPad, USA) and Ki affinity values were determined from the obtained […] values using the method of Cheng and Prusoff.

Adenosine A2b receptor = target: T2, Adenosine A2b receptor (Homo sapiens, UniProt P29275); assay: Adenosine receptor TR-FRET binding assay, A2b; details: Table 9, further testing; displacement of 30 nM CA200645, CHO cell membranes
T2 construct: expressed in transfected cells; host or cells: CHO cell membranes
T2 sequence (P29275 1-332): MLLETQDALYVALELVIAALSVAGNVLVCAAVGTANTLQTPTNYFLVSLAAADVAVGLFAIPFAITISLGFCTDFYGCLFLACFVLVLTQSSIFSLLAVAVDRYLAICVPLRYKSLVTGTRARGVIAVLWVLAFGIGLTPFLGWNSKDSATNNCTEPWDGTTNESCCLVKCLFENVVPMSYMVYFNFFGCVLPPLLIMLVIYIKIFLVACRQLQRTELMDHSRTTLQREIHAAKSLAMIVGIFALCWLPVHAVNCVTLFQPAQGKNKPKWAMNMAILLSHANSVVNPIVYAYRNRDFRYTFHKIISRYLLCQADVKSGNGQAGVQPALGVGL
Procedure: as §1, §2, §3

Adenosine A1 receptor = target: T3, Adenosine A1 receptor (Homo sapiens, UniProt P30542); assay: Adenosine receptor TR-FRET binding assay, A1; details: Table 9, further testing; displacement of 100 nM CA200645, CHO cell membranes
T3 construct: expressed in transfected cells; host or cells: CHO cell membranes
T3 sequence (P30542 1-326): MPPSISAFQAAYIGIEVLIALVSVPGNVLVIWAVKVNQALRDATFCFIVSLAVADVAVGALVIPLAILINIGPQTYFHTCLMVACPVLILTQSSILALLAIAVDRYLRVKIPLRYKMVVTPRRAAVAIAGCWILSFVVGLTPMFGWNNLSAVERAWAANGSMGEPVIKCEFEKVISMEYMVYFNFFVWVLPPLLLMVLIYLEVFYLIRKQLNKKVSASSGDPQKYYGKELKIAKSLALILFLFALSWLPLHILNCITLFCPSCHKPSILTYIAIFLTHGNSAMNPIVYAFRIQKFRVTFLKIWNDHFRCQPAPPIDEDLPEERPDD
Procedure: as §1, §2, §3

T1 sequence (P29274 whole entry): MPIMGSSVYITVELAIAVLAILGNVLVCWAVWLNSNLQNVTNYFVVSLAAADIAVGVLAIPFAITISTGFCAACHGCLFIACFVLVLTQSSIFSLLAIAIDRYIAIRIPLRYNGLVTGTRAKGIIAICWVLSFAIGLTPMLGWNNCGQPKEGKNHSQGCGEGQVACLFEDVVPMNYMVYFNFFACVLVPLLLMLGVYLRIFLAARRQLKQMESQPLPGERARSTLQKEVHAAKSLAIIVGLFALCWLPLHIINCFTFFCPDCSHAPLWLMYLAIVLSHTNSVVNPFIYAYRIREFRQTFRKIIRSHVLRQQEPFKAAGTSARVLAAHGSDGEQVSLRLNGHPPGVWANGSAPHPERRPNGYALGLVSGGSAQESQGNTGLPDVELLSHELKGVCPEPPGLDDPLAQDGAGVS

Compound | Ki (Adenosine A2a receptor; Table 9, further testing) | Ki (Adenosine A2b receptor) | Ki (Adenosine A2a receptor; Table 8, Cheng and Prusoff) | Ki (Adenosine A1 receptor)
Cc1cccnc1CNC(=O)c1cnc(-c2nccs2)nc1N [Example 16.1, 4-Amino-N-[(3-methyl-2-pyridyl)methyl]-2-thiazol-2-yl-pyrimidine-5-carboxamide] | 40 nM | 7170 nM | – | –
Nc1nc(-c2cccc(F)c2)ncc1C(=O)NCc1ccccn1 [Example 5.9, 4-Amino-2-(3-fluorophenyl)-N-(2-pyridylmethyl)pyrimidine-5-carboxamide] | 76 nM | 195 nM | 76 nM | –
C[C@@H](NC(=O)c1cnc(-c2cccc(F)c2)nc1N)c1ccccc1 [Example 5, 4-Amino-2-(3-fluorophenyl)-N-[(1R)-1-phenylethyl]pyrimidine-5-carboxamide] | 329 nM | – | 329 nM | –
Nc1nc(-c2cccc(F)c2)ncc1C(=O)NCCc1ccccc1 [Example 4.1, 4-Amino-2-(3-fluorophenyl)-N-(2-phenylethyl)pyrimidine-5-carboxamide] | 142 nM | 1730 nM | 141 nM | –
Cc1cccnc1CNC(=O)c1cnc(-n2cccn2)nc1N [Example 15, 4-Amino-N-[(3-methyl-2-pyridyl)methyl]-2-pyrazol-1-yl-pyrimidine-5-carboxamide] | 265 nM | – | 265 nM | –
Cc1cccnc1CNC(=O)c1cnc(-c2ncco2)nc1N [Example 16, 4-Amino-N-[(3-methyl-2-pyridyl)methyl]-2-oxazol-2-yl-pyrimidine-5-carboxamide] | 34 nM | – | 34 nM | 5650 nM
NC(=O)c1nnc(-c2cccc(F)c2)nc1N [Example 6, 5-Amino-3-(3-fluorophenyl)-1,2,4-triazine-6-carboxamide] | 556 nM | – | 556 nM | –
Nc1nc(-c2cccc(F)c2)ncc1C(=O)NCc1ccccc1 [Example 4, 4-Amino-N-benzyl-2-(3-fluorophenyl)pyrimidine-5-carboxamide] | 75 nM | 1210 nM | 74 nM | –
Nc1nc(-c2ccco2)ncc1C(=O)NCc1ccc2cnccc2c1 [Example 5.47, 4-Amino-2-(2-furyl)-N-(6-isoquinolylmethyl) pyrimidine-5-carboxamide] | 230 nM | – | – | 4770 nM
CN(Cc1ccccc1)C(=O)c1cnc(-c2ccco2)nc1N [Example 5.22] | 871 nM | – | 871 nM | 4240 nM
COc1ccc(CNC(=O)c2cnc(-c3ccco3)nc2N)cc1 [Example 5.11, 4-Amino-2-(2-furyl)-N-[(4-methoxyphenyl)methyl]pyrimidine-5-carboxamide] | 495 nM | – | 495 nM | –
Cc1cccnc1CNC(=O)c1c(N)nc(-c2ccco2)nc1OCCC1CCCCN1 (centres unmarked) [Example 23, 4-Amino-2-(2-furyl)-N-[(3-methyl-2-pyridyl)methyl]-6-[2-(2-piperidyl)ethoxy]pyrimidine-5-carboxamide] | 864 nM | – | – | 8530 nM
Cc1ccc(CNC(=O)c2cnc(-c3ccco3)nc2N)cc1 [Example 11.1, 4-Amino-2-(2-furyl)-N-(p-tolylmethyl)pyrimidine-5-carboxamide] | 31 nM | – | 31 nM | 2380 nM
Cc1cccnc1CNC(=O)c1cnc(-c2ccccc2F)nc1N [Example 9, 4-Amino-2-(2-fluorophenyl)-N-[(3-methyl-2-pyridyl)methyl]pyrimidine-5-carboxamide] | 312 nM | – | 312 nM | –
Nc1nc(-c2ccco2)ncc1C(=O)NC1CCCc2cccnc21 (centres unmarked) [Example 5.49, 4-Amino-2-(2-furyl)-N-(5,6,7,8-tetrahydroquinolin-8-yl)pyrimidine-5-carboxamide] | 159 nM | – | – | –
Nc1nc(-c2ccco2)ncc1C(=O)NCc1ncco1 [Example 5.45, 4-Amino-2-(2-furyl)-N-(oxazol-2-ylmethyl)pyrimidine-5-carboxamide] | 123 nM | – | – | –
Nc1nc(-c2ccco2)ncc1C(=O)N[C@H]1CCc2ccc(F)cc21 [Example 5.42, 4-Amino-N-[(1S)-6-fluoroindan-1-yl]-2-(2-furyl)pyrimidine-5-carboxamide] | 53 nM | – | – | –
Nc1nc(-c2cccc(F)c2)ncc1C(=O)NCc1ncccn1 [Example 5.5, 4-Amino-2-(3-fluorophenyl)-N-(pyrimidin-2-ylmethyl)pyrimidine-5-carboxamide] | 278 nM | – | 278 nM | –

These reach a lower Ki (Adenosine A2a receptor; Table 9, further testing). Values come first.

Ki (Adenosine A2a receptor; Table 9, further testing) | Ki (Adenosine A2b receptor) | Ki (Adenosine A2a receptor; Table 8, Cheng and Prusoff) | Ki (Adenosine A1 receptor) | Compound
29 nM | 622 nM | 29 nM | – | Nc1nc(-c2cccc(F)c2)ncc1C(=O)NCc1ncccc1C(F)(F)F [Example 5.6, 4-Amino-2-(3-fluorophenyl)-N-[[3-(trifluoromethyl)-2-pyridyl]methyl]pyrimidine-5-carboxamide]
29 nM | – | – | – | CN(C)CCNC(=O)c1c(N)nc(-c2cccc(C#N)c2)nc1OCCF [Example 24.5, 4-Amino-2-(3-cyanophenyl)-N-[2-(dimethylamino)ethyl]-6-(2-fluoroethoxy)pyrimidine-5-carboxamide]
21 nM | – | – | – | Nc1nc(-c2ccco2)ncc1C(=O)NCc1ccccc1C(F)(F)F [Example 5.55, 4-Amino-2-(2-furyl)-N-[[2-(trifluoromethyl)phenyl]methyl]pyrimidine-5-carboxamide]
20 nM | 2360 nM | – | – | COc1cccc(CNC(=O)c2cnc(-c3ccco3)nc2N)c1OC [Example 5.38, 4-Amino-N-[(2,3-dimethoxyphenyl)methyl]-2-(2-furyl)pyrimidine-5-carboxamide]
17 nM | – | 17 nM | 2680 nM | CC(C)n1ncnc1CNC(=O)c1cnc(-c2ccco2)nc1N [Example 5.27, 4-Amino-2-(2-furyl)-N-[(2-isopropyl-1,2,4-triazol-3-yl)methyl]pyrimidine-5-carboxamide]
16 nM | 1600 nM | – | – | Cn1ccnc1CNC(=O)c1cnc(-c2ccco2)nc1N [Example 5.37, 4-Amino-2-(2-furyl)-N-[(1-methylimidazol-2-yl)methyl]pyrimidine-5-carboxamide]
15 nM | – | 15 nM | – | Nc1nc(-c2ccco2)ncc1C(=O)NCc1ccc(Cl)cc1Cl [Example 5.19, 4-Amino-N-[(2,4-dichlorophenyl)methyl]-2-(2-furyl)pyrimidine-5-carboxamide]
6.8 nM | – | – | 598 nM | CC(=O)NCCNc1nc(-c2ccco2)nc(N)c1C(=O)NCc1ncccc1C [Example 22, 4-(2-Acetamidoethylamino)-6-amino-2-(2-furyl)-N-[(3-methyl-2-pyridyl)methyl]pyrimidine-5-carboxamide]
5.7 nM | – | – | – | CCCNC(=O)c1c(N)nc(-c2cccc(C#N)c2)nc1OCCF [Example 24.1, 4-Amino-2-(3-cyanophenyl)-6-(2-fluoroethoxy)-N-propyl-pyrimidine-5-carboxamide]
3.3 nM | – | – | – | CC(C)NC(=O)c1c(N)nc(-c2cccc(C#N)c2)nc1OCCF [Example 24, 4-Amino-2-(3-cyanophenyl)-6-(2-fluoroethoxy)-N-isopropyl-pyrimidine-5-carboxamide]
2 nM | – | – | – | CC(C)CNC(=O)c1c(N)nc(-c2cccc(C#N)c2)nc1OCCF [Example 24.2, 4-Amino-2-(3-cyanophenyl)-6-(2-fluoroethoxy)-N-isobutyl-pyrimidine-5-carboxamide]
0.9 nM | – | – | – | CCCCNC(=O)c1c(N)nc(-c2cccc(C#N)c2)nc1OCCF [Example 24.3, 4-Amino-N-butyl-2-(3-cyanophenyl)-6-(2-fluoroethoxy)pyrimidine-5-carboxamide]
